Results reported in article PMC6480306 (General and comparative endocrinology, 2018).

Molecular target: T1, zebrafish mPRα (membrane progestin receptor alpha, Paqr7) (Danio rerio, UniProt Q801G2)
T1 sequence (Q801G2 1-354): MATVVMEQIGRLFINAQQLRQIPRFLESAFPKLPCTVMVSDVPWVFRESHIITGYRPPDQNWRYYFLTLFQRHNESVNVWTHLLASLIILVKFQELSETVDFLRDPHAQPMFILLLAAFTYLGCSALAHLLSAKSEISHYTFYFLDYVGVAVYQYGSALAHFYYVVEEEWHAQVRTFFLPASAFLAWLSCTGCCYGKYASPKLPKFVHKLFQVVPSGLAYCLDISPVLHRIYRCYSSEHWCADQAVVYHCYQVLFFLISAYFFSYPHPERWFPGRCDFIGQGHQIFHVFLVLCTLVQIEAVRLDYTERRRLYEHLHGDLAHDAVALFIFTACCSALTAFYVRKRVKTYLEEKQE
Experiment: [3H]-DHP competitive radioligand binding, filtration assay

Compound	IC50
C[C@@H](O)[C@@]1(O)CC[C@H]2[C@@H]3CCC4=CC(=O)CC[C@]4(C)[C@H]3CC[C@@]21C [DHP, 17, 20β-dihydroxy-4-pregnen-3-one]	~100 nM
C=C[C@]12CCC(=O)C=C1CC[C@H]1[C@@H]3CC[C@H](C(C)=O)[C@@]3(C)CC[C@@H]12 [02–0, l0-ethenyl-l9-norprogesterone]	2000 nM
